Where “and” joins values, the source holds several entries; their conditions need not be identical. Identical values can stand only once.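 Values below derive from 48-hour exposures of cells grown in 96-well plates, with endpoints linearly interpolated between the two concentrations bracketing the appropriate inhibition level. GI50 marks 50% less growth. TGI denotes the concentration required for complete inhibition of growth.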
Tests used:
Experiment in all cases: NCI tumour cell line growth inhibition, 48 h
DMS 114 small cell lung = system: DMS 114 small cell lung
XF 498 CNS = system: XF 498 CNS
P388/ADR leukemia = system: P388/ADR leukemia
P388 leukemia = system: P388 leukemia
KM20L2 colon = system: KM20L2 colon
DMS 273 small cell lung = system: DMS 273 small cell lung
M19-MEL melanoma = system: M19-MEL melanoma
DLD-1 colon = system: DLD-1 colon
SN12K1 renal = system: SN12K1 renal
LXFL 529 NSCLC = system: LXFL 529 NSCLC
HOP-18 NSCLC = system: HOP-18 NSCLC

Row | SMILES | GI50 (DMS 114 small cell lung) | TGI (DMS 114 small cell lung) | GI50 (XF 498 CNS) | TGI (XF 498 CNS) | GI50 (P388/ADR leukemia) | TGI (P388/ADR leukemia) | GI50 (P388 leukemia) | TGI (P388 leukemia) | GI50 (KM20L2 colon) | TGI (KM20L2 colon) | GI50 (DMS 273 small cell lung) | TGI (DMS 273 small cell lung) | GI50 (M19-MEL melanoma) | TGI (M19-MEL melanoma) | GI50 (DLD-1 colon) | TGI (DLD-1 colon) | GI50 (SN12K1 renal) | TGI (SN12K1 renal) | TGI (LXFL 529 NSCLC) | TGI (HOP-18 NSCLC)
1 | CC[C@@]1(O)CC(OC2CC(N3CCOCC3)C(O)C(C)O2)c2c(O)c3c(c(O)c2[C@H]1O)C(=O)c1cccc(O)c1C3=O (some centres undefined) | 0.0525 µM | 0.968 µM and 1.08 µM | 0.0341 µM | 0.278 µM and 0.362 µM | 0.0044 µM | 2.94 µM and 0.77 µM | 0.179 pM | 1.08 µM and 0.799 µM | 0.102 µM | 3.84 µM and 1.86 µM | 0.018 µM | 1.1 µM and 0.393 µM | 0.0716 µM | 0.981 µM and 2.14 µM | 0.0324 µM | 2.78 µM and 3.2 µM | 0.0153 µM and 0.0102 µM | 0.403 µM and 0.297 µM | – | –
2 | C=C(CN(C)C)C(=O)c1ccccc1OC | – | 42.5 µM | – | 32.3 µM | – | – | – | – | – | 50.8 µM | – | 34 µM | – | 32.4 µM | – | 14.2 µM | – | – | 11.5 µM | 20.2 µM
3 | N#CC1(CCCI)CCCC1 | – | 25.3 µM | – | 47.3 µM | – | – | – | – | – | > 100 µM | – | > 100 µM | – | 45 µM | – | > 100 µM | – | – | > 100 µM | 36.3 µM

Reference: PubChem BioAssay (NCI)
